We go through ten molecules from US20190352358A1, “COMPOUNDS, COMPOSITIONS AND USES THEREOF FOR IMPROVEMENT OF BONE DISORDERS” (ALIZE PHARMA III SAS, priority 2017, published 2019).

Non-standard residues stand in square brackets, D forms with d. Residues, ends and D or L forms follow the SMILES beside them. Primed or numbered codes have the meaning given here. No end group written: not given here. *: point of attachment. PEG20′ = PEG20 chain (pegylated), attached via a cysteine; C16 diacid = O=C(O)CCCCCCCCCCCCCCC(=O)*; Arachidoyl = CCCCCCCCCCCCCCCCCCCC(=O)*; Palmitoyl = CCCCCCCCCCCCCCCC(=O)*; Myristoyl = CCCCCCCCCCCCCC(=O)* Some results are limits rather than exact numbers.

For data set [1], the system named is MC-3T3 E1 clone 4 (CL4) osteoblast cells. In words: Osteocalcin expression during in vitro osteoblast differentiation, PEGylated analogs (Example 6). Particulars: Table 17; test peptide 2 μg/mL; 18-21 day interval. Format: cell-based. How it is done: (§1) Each peptide was tested in a biologic assay measuring its ability to stimulate differentiation of osteoblast cells over a 18-21 day interval as assessed by the stimulation of osteocalcin protein synthesis. MC-3T3 E1 clone 4 (CL4) osteoblast cells were obtained from ATCC (Manassas, Va., USA). Cells were cultured in α-MEM containing 10% fetal bovine serum (FBS; Thermo Fisher Scientific, Pittsburgh, Pa., USA). After confluency, culture medium was changed to differentiation medium (DM), which contained 10% FBS plus 50 μg/mL ascorbic acid and 4 mM β-glycerol phosphate, with or without a test peptide (2 μg/mL). Fresh DM, with or without test peptide, was applied every 72 hours. The cell monolayers were lysed in a modified radioimmunoprecipitation assay (RIPA) buffer. Total cellular protein in the lysates was determined using BCA (Thermo Fisher Scientific, Rockford, Ill., USA). Cell proteins are separated on SD S-PAGE gel and transferred on PVDF membrane for analysis. Osteocalcin detection was performed using anti-osteocalcin antibody at 1:200 dilution (Santa Cruz Biotechnology, Inc, Santa Cruz, Calif., USA) and visualized using enhanced chemiluminescence (Thermo Fisher Scientific, Rockford, Ill., USA).

For data set [2] the test system is unchanged. In words: Osteocalcin expression during in vitro osteoblast differentiation, acylated and cyclic analogs (Example 7). The data set is classed as cell-based. The note with it: for Fold increase vs DM ± SE: Table 18, test peptide 1 μg/L, 18-21 day interval. Here is the method:
as §1, with “Each acylated” for “Each”, “(1 μg/L).” for “(2 μg/mL).”, “SDS-PAGE” for “SD S-PAGE”
In a separate experiment, the effect of cyclization was examined on of the HBD1 (3-11) peptide. The cyclic HBD1 (3-11) was synthetized and tested on the in vitro osteoblast differentiation assay.

Data set [3] can be described thus: Pharmacokinetics of acylated analogs in male Sprague Dawley rats after subcutaneous injection (Example 11). Particulars: sc, rat, Table 24. Also on record: AUC(0-t): concentration or dose not given beside the values. The data set is classed as in vivo. Here is the method:
The peptides were reconstituted in saline (0.9% NaCl). Three male Sprague Dawley rats (approximately 6 weeks of age) were used per group. Subcutaneous doses were administered into the right flank of each animal […]. Following dosing, serial whole blood samples (ca. 0.3 mL) were collected from retro-orbital sinus into K2EDTA treated containers. Following each blood sample collection, samples were placed into a cooling block at 4° C. Samples were collected prior to dosing then at 15 and 30 minutes then 1, 2, 4, 6, 8 and 24 hours post dose for subcutaneous injection. Blood samples were centrifuged at 3500×rpm for 10 minutes at 4° C. and resultant plasma aspirated off into clean fully, labelled tubes. Plasma samples were snap frozen following aspiration then stored at −80° C. The peptides were extracted with acetonitrile:water (75:25, v/v) and analyzed using developed LC-MS/MS methods as described in Example 9. The limits of detection of these methods are 0.003 nmol/mL for HBD1 (1-13) with palmitic acid at the N-terminus (C16:0), 0.0008 nmol/mL for HBD1 (3-11) with palmitic acid at the N-terminus (C16:0), 0.0070 nmol/mL for HBD1 (3-11) with stearic acid at the N-terminus (C18:0), and 0.0015 nmol/mL for HBD1 (3-11) with myristic acid at the N-terminus (C14:0), HBD1 (3-11) with arachidic acid at the N-terminus (C20:0), HBD1 (3-11) with palmitic diacid at the N-terminus (C16:0-diacid), HBD1 (3-11) with palmitic acid at the C-terminus (C16:0). All values below these limits of quantification were considered as zero.

The nature of data set [4]: Pharmacokinetics in male Sprague Dawley rats after intravenous and subcutaneous injection (Example 10). Format: in vivo. Particulars: 1 μmol net peptide/kg, rat. Here is the method:
The peptides were reconstituted in saline (0.9% NaCl). Three male Sprague Dawley rats were used per group. Intravenous doses were administered into a lateral tail vein at the dose of 1 μmol net peptide/kg. Subcutaneous doses were administered into the right flank of each animal, also at the dose of 1 μmol net peptide/kg. Following dosing, serial whole blood samples (ca. 0.25 mL) were collected from a lateral tail vein into K2EDTA treated containers. Following each blood sample collection, samples were placed into a cooling block at 4° C. Samples were collected prior to dosing then at 2, 5, 15 and 30 minutes then 1, 2, 4, 6 and 8 and 24 hours post dose for intravenous injection and at 15 and 30 minutes then 1, 2, 4, 6, 8 and 24 hours post dose for subcutaneous injection.
Blood samples were centrifuged at 10000×g for 2 minutes at 4° C. and resultant plasma aspirated off into clean fully, labelled tubes. Plasma samples were snap frozen following aspiration then stored at −80° C. Peptides were extracted and analyzed as described in Example 9. The limits of quantification of these methods were 0.001 nmol/mL for cyclic HBD1 (3-11) and HBD1 (3-11) and 0.003 nmol/mL for HBD1 (1-13). All values below these limits of quantification were considered as zero.

[5] abbreviates: male, Sprague Dawley, plasma, iv.
[6] abbreviates: male, Sprague Dawley, plasma, sc.

“64 (KHHLGLEEPKKLR; not fully specified; MOD_RES (13)..(13) Pegylated) [compound 64]”: the “Fold increase vs SEQ ID NO: 1 ± SE” value in data set [1] came out at 2.2 ± 0.4 fold.
Consider “63 ([PEG20′]CKHHLGLEEPKKLR) [compound 63]”, for which the “Fold increase vs SEQ ID NO: 1 ± SE” value in data set [1] turned out to be 1.4 ± 0.3 fold.
As a reminder, the AUC(0-t) is the area under the concentration-time curve up to a stated or last time point. What is called Cmax is the highest concentration seen after dosing. The Tmax is the time from dosing to the highest level. On to `CCCCCCCCCCCCCC(=O)N[C@@H](Cc1c[nH]cn1)C(=O)N[C@@H](CC(C)C)C(=O)NCC(=O)N[C@@H](CC(C)C)C(=O)N[C@@H](CCC(=O)O)C(=O)N[C@@H](CCC(=O)O)C(=O)N1CCC[C@H]1C(=O)N[C@@H](CCCCN)C(=O)N[C@@H](CCCCN)C(=O)O` [compound 71] (Myristoyl-HLGLEEPKK-OH; C-terminus assumed), for which, in data set [2], the “Fold increase vs DM ± SE” value amounted to 1.98 ± 0.22 fold. For the same molecule, in data set [3] (male, Sprague Dawley, plasma), the AUC(0-t) was found to be 1.11 µM·h, the peak level (Cmax) was 240 nM and the Tmax amounted to 60 min. Also, the “Tlast (last time point with detectable peptide)” value (from here on “Tlast”) in data set [3] is listed as 6 h.
For the molecule `CCCCCCCCCCCCCCCCCCCC(=O)N[C@@H](Cc1c[nH]cn1)C(=O)N[C@@H](CC(C)C)C(=O)NCC(=O)N[C@@H](CC(C)C)C(=O)N[C@@H](CCC(=O)O)C(=O)N[C@@H](CCC(=O)O)C(=O)N1CCC[C@H]1C(=O)N[C@@H](CCCCN)C(=O)N[C@@H](CCCCN)C(=O)O` [compound 74] (Arachidoyl-HLGLEEPKK-OH), the “Fold increase vs DM ± SE” value in data set [2] stood at 5.05 ± 0.95 fold. Also, in data set [3] (male, Sprague Dawley, plasma), the AUC(0-t) was found to be 2.58 µM·h, the concentration peaked (Cmax) at 250 nM and the time of peak concentration (Tmax) stood at 120 min. Further, the “Tlast” value in data set [3] stood at 8 h.
In general, bioavailability refers to the share of a dose that reaches the circulation, judged against a reference dose that is usually intravenous. In the case of `CC(C)C[C@@H]1NC(=O)CNC(=O)[C@H](CC(C)C)NC(=O)[C@H](Cc2c[nH]cn2)NC(=O)[C@H](CCCCN)NC(=O)[C@H](CCCCN)NC(=O)[C@@H]2CCCN2C(=O)[C@H](CCC(=O)O)NC(=O)[C@H](CCC(=O)O)NC1=O` [SEQ ID NO: 77, Cyclic(HLGLEEPKK)] (cyclo(EEPKKHLGL)), the “Tlast” value in data set [4] (iv, listed as Cyclic HBD1 (3-11)) is listed as 8 h; in data set [4] (sc, listed as Cyclic HBD1 (3-11)), 4 h; in data set [4] (sc, listed as cyclic HBD1 (3-11)), at most 4 h. Moreover, in data set [4] (male, Sprague Dawley, plasma, subcutaneous, sc vs iv, read-out: F (bioavailability)), the bioavailability worked out at 48%. Further, the AUC(0-t) in data set [4] (setting [5]) came out at 2.09 µM·h; in data set [4] (setting [6]) it was 0.99 µM·h. The Cmax in data set [4] (setting [5]) amounted to 5720 nM; in data set [4] (setting [6]) it was 1060 nM. Besides, the values for the Tmax in data set [4] (setting [5]) and in data set [4] (setting [6]) were 1.98 min and 15 min, respectively. Further, the “in vitro biological activity of acylated or cyclic peptides vs parent peptides (in words)” value in data set [2] (text on Table 18 and separate experiment) is recorded as “did not appear to change the in vitro biological activity”.
For `CCCCCCCCCCCCCCCC(=O)NCCCC[C@H](NC(=O)[C@H](CCCCN)NC(=O)[C@@H]1CCCN1C(=O)[C@H](CCC(=O)O)NC(=O)[C@H](CCC(=O)O)NC(=O)[C@H](CC(C)C)NC(=O)CNC(=O)[C@H](CC(C)C)NC(=O)[C@@H](N)Cc1c[nH]cn1)C(=O)O` [compound 76] (H-HLGLEEPKK(Palmitoyl)-OH; N-terminus and C-terminus assumed), the “Fold increase vs DM ± SE” value in data set [2] turned out to be 3.18 ± 0.31 fold. Further, in data set [3] (in vivo), the area under the curve AUC(0-t) was found to be 1.09 µM·h, the Cmax was found to be 500 nM and the Tmax came out at 15 min. The “Tlast” value in data set [3] is given as 8 h.
For the molecule “66 (HHLGLEEPKK; not fully specified; MOD_RES (10)..(10) Pegylated) [compound 66]”, the “Fold increase vs SEQ ID NO: 1 ± SE” value in data set [1] is 2.2 ± 0.2 fold.
In the case of 65 ([PEG20′]CHHLGLEEPKK) [compound 65], the “Fold increase vs SEQ ID NO: 1 ± SE” value in data set [1] stood at 1.4 ± 0.1 fold.
On to 67 ([PEG20′]CHLGLEEPKK) [compound 67], for which the “Fold increase vs SEQ ID NO: 1 ± SE” value in data set [1] is recorded as 1.9 ± 0.2 fold.
On to `CC(C)C[C@H](NC(=O)CNC(=O)[C@H](CC(C)C)NC(=O)[C@H](Cc1c[nH]cn1)NC(=O)CCCCCCCCCCCCCCC(=O)O)C(=O)N[C@@H](CCC(=O)O)C(=O)N[C@@H](CCC(=O)O)C(=O)N1CCC[C@H]1C(=O)N[C@@H](CCCCN)C(=O)N[C@@H](CCCCN)C(=O)O` [compound 75] ({C16 diacid}-HLGLEEPKK-OH; C-terminus assumed), for which the “Fold increase vs DM ± SE” value in data set [2] is 3.39 ± 0.19 fold. Also, in data set [3] (male, Sprague Dawley, plasma), the AUC(0-t) amounted to 1.14 µM·h, the Cmax turned out to be 580 nM and the Tmax is 15 min. Further, the “Tlast” value in data set [3] is reported as 8 h.
